Experimental data published in patent publication US20250262152A1, “DEVICES, SYSTEMS, KITS, AND METHODS FOR DRUG DELIVERY TO THE SPINAL CORD” (Ohio State Innovation Foundation, priority 2022, published 2025).

Assay: proof-of-principle fluorescence tracer study: delivery to the spinal cord with dumbbell-shaped dual chamber stentgraft and histamine portal
Type: in vivo
Procedure: As a proof-of-principle study, we evaluated this strategy by using a dumbbell-shaped dual chamber stentgraft to deliver a fluorescent tracer (fluorescein dye) to the spinal cord. In this fluorescence tracer study, delivery of the tracer to the spinal cord using the dumbbell stentgraft was performed using a histamine portal (see FIGS. 3A-3C and FIG. 5). The dual chamber stent was used to deliver a “pulse” of histamine specifically to the spinal cord region of interest to create a “portal” in the BBB (i.e., a local increase in BBB permeability).
Dual chamber, retrievable stent graft: Stents were laser cut from the shape memory alloy, nitinol, and thermally shapeset into a dumbbell shape. The scaffold was affixed to a permanently attached delivery/retrieval wire, encapsulated in the polymer polytetrafluoroethelene (Zeus, Inc) with a perfusion cannula to the outer chamber and compressed into a sheath for endovascular delivery.

With `O=C1OC2(c3ccc(O)cc3Oc3cc(O)ccc32)c2ccccc21` [fluorescein] the “staining of spinal cord cross sections viewed under UV Woods lamp” value (histamine pulse followed by tracer delivered to outer chamber of dual chamber stentgraft, FIG. 3C) was “successful staining of the entirety of the spinal cord” and the “delivery of fluorescein to the spinal cord” value (local administration in combination with portal agent (histamine) as compared to intravascular tracer injection alone, FIG. 5) was “much higher”.
